# Measured values reported in the supplement of paper PMC10307832.
# How the values were obtained:
# Test in all cases: relative viability (nuclei count vs DMSO), 5 days (fraction); higher = more cells survive
# [1] = compound: CC(=O)Nc1cccc(-n2c(=O)n(C3CC3)c(=O)c3c(Nc4ccc(I)cc4F)n(C)c(=O)c(C)c32)c1 [Trametinib] + CC1(C)CCC(c2ccc(Cl)cc2)=C(CN2CCN(c3ccc(C(=O)NS(=O)(=O)c4ccc(N[C@H](CCN5CCOCC5)CSc5ccccc5)c(S(=O)(=O)C(F)(F)F)c4)cc3)CC2)C1 [Navitoclax] (partner 0.5 µM)
# Procedure, shortened: (§1)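 Lung cancer cell lines were pin-tool dosed in 1536-well plates on the day after seeding, with either a lone drug or a fixed anchor-drug dose plus five library-drug doses (not always all listed) in √10 steps. Nuclei were counted on 4× images after 5 days. Relative viability is the ratio of treated-well to vehicle-well nuclei counts, with each value a median of duplicate plates.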
# [2] = compound: CC(=O)Nc1cccc(-n2c(=O)n(C3CC3)c(=O)c3c(Nc4ccc(I)cc4F)n(C)c(=O)c(C)c32)c1 [Trametinib] + COc1cc2c(Oc3ccc(NC(=O)C4(C(=O)Nc5ccc(F)cc5)CC4)cc3F)ccnc2cc1OCCCN1CCOCC1 [Foretinib] (partner 0.25 µM)
# Procedure, shortened: as §1
# [3] = compound: CC(=O)Nc1cccc(-n2c(=O)n(C3CC3)c(=O)c3c(Nc4ccc(I)cc4F)n(C)c(=O)c(C)c32)c1 [Trametinib] + Cc1nc(NC(=O)N2CCC[C@H]2C(N)=O)sc1-c1ccnc(C(C)(C)C(F)(F)F)c1 [Alpelisib] (partner 2 µM)
# Procedure, shortened: as §1
# [4] = compound: CN1C=C(C2=CC=CC=C21)/C=C\3/C4=C(C=CC=N4)NC3=O + Nc1nc2[nH]cc(CCc3ccc(C(=O)N[C@@H](CCC(=O)O)C(=O)O)cc3)c2c(=O)[nH]1 [Pemetrexed] (partner 0.2 µM)
# Procedure, shortened: as §1
Cell Line,relative viability ([1]; first compound 0.0025 µM),relative viability ([1]; first compound 0.007906 µM),relative viability ([1]; first compound 0.025 µM),relative viability ([1]; first compound 0.07906 µM),relative viability ([1]; first compound 0.25 µM),relative viability ([2]; first compound 0.0025 µM),relative viability ([2]; first compound 0.007906 µM),relative viability ([2]; first compound 0.025 µM),relative viability ([2]; first compound 0.07906 µM),relative viability ([2]; first compound 0.25 µM),relative viability ([3]; first compound 0.0025 µM),relative viability ([3]; first compound 0.007906 µM),relative viability ([3]; first compound 0.025 µM),relative viability ([3]; first compound 0.07906 µM),relative viability ([3]; first compound 0.25 µM),relative viability ([4]; first compound 0.02 µM),relative viability ([4]; first compound 0.06325 µM),relative viability ([4]; first compound 0.2 µM),relative viability ([4]; first compound 0.6325 µM),relative viability ([4]; first compound 2 µM)
H3255,0.468,0.316,0.251,0.161,0.18,0.794,0.857,0.501,0.728,0.509,0.684,0.566,0.503,0.41,0.317,0.578,0.549,0.493,0.615,0.54
NCI-H2347,0.678,0.328,0.143,0.198,0.215,1.08,0.43,0.31,0.46,0.387,0.96,0.552,0.346,0.38,0.36,0.445,0.454,0.444,0.423,0.426
LK-2,0.745,0.897,0.767,0.946,0.368,1.07,1.19,1.11,1.2,0.859,1,0.862,0.958,1.28,0.303,0.192,0.241,0.199,0.309,0.297
HCC-15,0.505,0.336,0.243,0.247,0.189,0.75,0.559,0.343,0.244,0.201,0.645,0.436,0.275,0.204,0.148,0.228,0.211,0.223,0.217,0.211
SW 1573,0.723,0.885,0.609,0.546,0.404,0.876,0.723,0.616,0.513,0.152,0.629,0.619,0.564,0.457,0.43,0.785,0.806,0.788,0.93,0.906
NCI-H838,1.05,0.973,,1.01,0.718,0.921,0.889,0.795,0.797,0.638,0.97,0.877,,0.709,0.551,0.249,0.235,0.234,0.247,0.246
RERF-LC-KJ,0.948,1.09,0.968,0.966,0.717,0.948,0.851,0.699,0.827,0.778,0.775,0.759,0.645,0.657,0.472,0.436,0.482,0.493,0.475,0.471
NCI-H441,0.761,0.633,0.572,0.312,0.278,1.03,1.01,0.699,0.742,0.703,0.836,0.659,0.638,0.533,0.33,0.275,0.241,0.264,0.285,0.251
NCI-H2170,0.636,0.521,,0.425,0.448,0.973,0.539,0.968,0.963,0.87,0.828,0.721,,0.669,0.638,0.261,0.254,0.292,0.264,0.257
PC-14,0.99,1.05,0.978,0.882,0.452,0.911,0.823,0.809,0.885,0.693,0.994,0.892,0.949,0.654,0.46,0.141,0.137,0.145,0.143,0.118
NCI-H2009,0.986,0.527,0.537,0.531,0.403,1.05,0.708,0.351,0.279,0.302,0.88,0.72,0.444,0.485,0.362,1.02,0.947,1.06,1.02,1.02
NCI-H1395,1.17,1.01,1.27,1.14,0.685,0.993,0.914,0.852,0.919,0.708,1.02,0.903,1.39,1.09,0.652,0.82,0.739,0.707,0.845,0.815
NCI-H1437,1.15,0.724,0.537,0.377,0.312,1.24,1.06,0.754,0.664,0.588,0.908,0.342,0.22,0.219,0.208,0.305,0.294,0.344,0.343,0.335
NCI-H647,1.01,1.07,0.834,0.55,0.267,1.35,1.08,0.963,0.911,0.4,1.14,0.956,0.768,0.638,0.199,0.122,0.173,0.153,0.167,0.175
NCI-H1793,0.36,0.345,0.265,0.216,0.133,0.661,0.349,0.393,0.256,0.237,0.578,0.457,0.28,0.425,0.29,0.876,1.11,0.73,0.785,0.988
SK-MES-1,1.3,1.25,0.943,0.624,0.357,0.913,0.476,0.638,0.566,0.347,0.722,0.542,0.323,0.31,0.184,0.846,0.856,0.687,0.954,0.852
